{"source": "patent US20260000645A1", "about": "“USE OF EBSELEN OR ONE OF THE DERIVATIVES THEREOF TO TREAT MITOCHONDRIAL PATHOLOGIES OR DYSFUNCTIONS” (ASSOCIATION FRANCAISE CONTRE LES MYOPATHIES, priority 2022, published 2026)", "key": {"[1]": {"test_system": "mutant yeast strains (cox2, sym1, fmc1, atp6, taz1, shy1, A29G)", "experiment": "Halos test: respiratory growth of mutant yeast strains on non-fermentable solid medium", "format": "cell-based, Saccharomyces cerevisiae", "conditions": "30 and 90 nmoles on filter, 28° C. or 36° C., 4 to 5 days", "description": "Each of the strains of the yeast Saccharomyces cerevisiae used in these examples contain different specific mutations modeling human mutations leading to mitochondrial illnesses. At varying degrees, all these mutant yeast strains have a growth defect when cultivated on a respiratory medium such as ethanol or glycerol at 28° C. or 36° C. (depending on the strain).\n• fmc: MC6 MATa ade2-1 his3-11,15 trp1-1 leu2-3,112 ura3-I fmc1: :HIS3 [Δi ER OR] (Schwimmer, C. et al. (2005) J Biol Chem, 280, 30751-30759) for the first screening • MR14 MATa ade2-1 his3-11,15 trp1-1 leu2-3,112 ura3-1 CAN1 arg8::HIS3 ρ+ atp6-L173R or RKY20MATa ade2-1 his3-11,15 trp1-1 leu2-3,112 ura3-1 CAN1 arg8::HIS3 ρ+ atp6-L173P (Rak, M. et al. (2007) J Biol Chem, 282, 34039-34047) for the second screening • taz1Δ: this strain was produced by substituting the open reading framework of TAZ1 by that of TRP1 in the strain W303-1A (MATa ade2-1 ura3-1 his311, 15 trp1-1 leu2-3, 112 can1-100) (from Taffin de Tilques, M. et al. (2017) Dis Model Mech, 10, 439-450) • shy1-G137R: this mutant was produced in the strain CW252 containing the nuclear base of W303 and a mitochondrial gene lacking intron. […]"}, "[2]": {"test_system": "fibroblast lines of patients carrying mutations of the nuclear gene NDUFV1", "experiment": "Mitochondrial respiration of NDUFV1 patient fibroblasts (Seahorse XF96)", "format": "cell-based, human", "conditions": "48 h exposure", "description": "EBS was also tested for the ability thereof to restore mitochondrial respiration of fibroblast lines of patients carrying mutations of the nuclear gene NDUFV1 of mitochondrial complex I. The human lines NDUFV1 mimicking the human illnesses related to a mitochondrial deficit of complex I (Leigh's syndrome) are carriers of genetic mutations affecting the gene NDUFV1. These cell lines were cultivated in a DMEM medium containing 1.0 g/L of glucose and 1 mM of sodium pyruvate and 50 μg/ml of uridine (Sigma Aldrich, Lyon, France).\nThe respiration was measured using a Seahorse XF96 extracellular flow metabolic analyzer in 96 well plates according to the manufacturer's protocol (Agilent Technologies). Deficient cells were exposed for 48 h to different concentrations with a dose response curve associating a range of concentrations from 25 nM to 10 μM. […]\nThe measurement of the oxygen consumption rate (OCR) was recorded under basal conditions to evaluate the mitochondrial respiratory activity and then the cells were treated sequentially with 4 μg/mL of oligomycin and 1.5 μM of carbonyl cyanide p-(trifluoromethoxy) phenylhydrazone (FCCP) (Sigma-Aldrich). The basal OCR, the respiration related to ATP, the maximum respiratory capacity and the respiration by proton leak were determined. […] Maximum respiratory capacity has been determined as the rate of respiration in the presence of uncoupling FCCP. […]"}, "mutant yeast strain sym1": {"test_system": "mutant yeast strain sym1", "experiment": "Cellular respiration (OROBOROS oxygraph) in sym1", "format": "cell-based, Saccharomyces cerevisiae", "conditions": "EBS 1 μM, compared to non-treated cells", "description": "Respiratory intensity corresponds to the amount of oxygen consumed with respect to time and the number of cells. It reflects the mitochondrial oxidative metabolism of the cells. The consumption of oxygen was measured using the OROBOROS oxygraph system. The cells were cultivated over 7-8 generations at 28° C. for 24 to 48 h in an Ethanol YPA medium supplemented by DMSO or EBS (1 μM). 10^7 cells were introduced into the oxygraph. The consumption of O2 was recorded with or without CCCP (maximum rate of oxygen consumption). The rate of O2 consumption was calculated on the basis of the linear part of the O2 consumption.\nThe experiments described in example 2 were implemented on the mutant yeast strain sym1.\nThe data are the averages ±SEM of at least three independent experiments. The significance of the variations between samples and the controls were estimated using the multi-factorial Anova: Tukey test."}}, "data": [{"smiles": "O=c1c2ccccc2[se]n1-c1ccccc1", "note": "[ebselen, 2-phenyl-1,2-benzisoselenazol-3(2H)-one]", "values": [{"measurement": "respiratory growth (halo of improved growth)", "setting": "[1]", "result": "active on all the mutant strains of yeast tested in a dose dependent manner"}, {"measurement": "toxic concentration", "setting": "[2]", "result": "> 10", "unit": "µM"}, {"measurement": "cell respiration", "setting": "mutant yeast strain sym1", "result": "increased"}]}]}
